Patent US20250222146A1, “Radiopharmaceuticals Targeting Somatostatin Receptor 2 and Uses Thereof” (RayzeBio, Inc., priority 2023, published 2025)
Read-outs that look alike come from different tables or passages of the source. Numbered stars: 1 amine (or outer) side, 2 acyl side, 3 side chain; on linkers, the order of the positions; unused ones are H or OH. Square brackets hold non-standard residues; d marks the D form. Side chains are listed from the residue outwards. Peptide text beside a SMILES is read from it. * marks the point of attachment. DOTA(Lu)NH(CH2)6NHCOCH2 = O=C(CN1CCN2CCN3CCN(CC1)CC(=O)[O][Lu]([O]C(=O)C2)[O]C(=O)C3)NCCCCCCNC(=O)C*; X10 = O=C(CN1CCN2CCN3CCN(CC1)CC(=O)[O][Lu]([O]C(=O)C2)[O]C(=O)C3)NCC12CCC(C(=O)*)(CC1)CC2; X14 = O=C(CN1CCN2CCN3CCN(CC1)CC(=O)[O][Lu]([O]C(=O)C2)[O]C(=O)C3)NCC1CCC(C(=O)*)CC1; X12 = O=C1CN2CCN3CCN(CC(=O)N4CCC(CC(=O)*)CC4)CCN(CC2)CC(=O)[O][Lu]([O]1)[O]C(=O)C3; X24 = O=C1CN2CCN3CCN(CC(=O)N4CC(CC(=O)*)C4)CCN(CC2)CC(=O)[O][Lu]([O]1)[O]C(=O)C3; X9 = O=C1CN2CCN3CCN(CC(=O)N4CC(C(=O)*)C4)CCN(CC2)CC(=O)[O][Lu]([O]1)[O]C(=O)C3; DOTA(Lu) = O=C1CN2CCN3CCN(CC(=O)*)CCN(CC2)CC(=O)[O][Lu]([O]1)[O]C(=O)C3; X7 = O=C1CN2CCN3CCN(CC2)[C@H](CCC(=O)*)C(=O)[O][Ga]([O]1)[O]C(=O)C3; Ala(piperidin-4-yl) = O=C([C@H](CC1CCN([*:3])CC1)N[*:1])[*:2]; dTrp(βS-Me) = C[C@@H](c1c[nH]c2ccccc12)[C@@H](N)C(=O)O; X11 = O=C1CN2CCN(CCN(CC(=O)*)CC2)CC(=O)[O][Ga+][O]1; Ala(piperazin-1-yl) = N[C@@H](CN1CCNCC1)C(=O)O; X8 = O=C([C@@H](Cc1n[nH]c2ccccc12)N[*:1])[*:2]; X2 = O=C([C@H](CCC1CNC1)N[*:1])[*:2]; Lys(Me2) = CN(C)CCCC[C@H](N)C(=O)O; NMeLys(Me) = CNCCCC[C@H](NC)C(=O)O; Trx = NC[C@H]1CC[C@H](C(=O)O)CC1; Lys(Me) = CNCCCC[C@H](N)C(=O)O; NMehCys = CN[C@@H](CCS)C(=O)O; NMeK = CN[C@@H](CCCCN)C(=O)O

Key:
[1] = target: SSTR2 (Homo sapiens, UniProt P30874); experiment: SSTR binding affinity by radioligand binding competition assay ([125I]-Tyr11-Somatostatin, membrane extracts); conditions: radioligand competition, [125I]-Tyr11-Somatostatin 0.1 nM, membrane extracts, Ki from IC50 by Cheng Prusoff
[2] = Peptide conjugate biodistribution measured by tissue PK (ICP-MS, % ID/g in kidney tissue at 2 h); format: in vivo; conditions: 2 h time point, mouse
Experimental: Macrocyclic peptides and conjugates described herein were tested for tissue distribution by measuring concentrations in tissues by MS using in vivo animal models. Peptide metal chelates were dosed to animals and tissues were collected at specific time points based off the peptide PK profile. The samples were then analyzed by MS and the results reported as % ID/g (% injected dose/gram). Radiopharmaceutical conjugates of the present disclosure have improved tissue distribution for radiopharmaceutical therapeutics.
Peptide metal chelate doses were suspended in phosphate-buffered saline (PBS) containing 0.1% Tween 80. An injection volume of 100 μL per mouse was used, and blood and tissue samples were collected, weighed, and stored frozen at-80° C. until analysis. Tissue samples were digested with concentrated nitric acid in a microwave digestion apparatus. The sample digest was diluted with internal standard and analyzed using inductively coupled plasma mass spectrometry (ICP-MS). ICP-MS is an elemental analysis technique used to measure elements by using argon plasma to convert the sample into ions that are then measured using the mass spectrometer. Calibration standards were used for quantification of element(s) of interest by constructing a multipoint standard curve covering the range of analyte concentrations anticipated in the samples (typical range is 500 ppt to 0.1 ppt). A single quadrupole instrument (iCAP RQ, Thermo Fisher) ICP-MS was coupled with a Teledyne CETAC autosampler and used for the sample analysis.
The % ID/g of conjugate in kidney tissue at the 2-hour time point (2 h) was quantified for various conjugates, and the results are shown in Table 10. Lower kidney tissue % ID/g values indicate lower distribution to the kidney after administration of the conjugate.

SSTR2, sequence (P30874 whole entry): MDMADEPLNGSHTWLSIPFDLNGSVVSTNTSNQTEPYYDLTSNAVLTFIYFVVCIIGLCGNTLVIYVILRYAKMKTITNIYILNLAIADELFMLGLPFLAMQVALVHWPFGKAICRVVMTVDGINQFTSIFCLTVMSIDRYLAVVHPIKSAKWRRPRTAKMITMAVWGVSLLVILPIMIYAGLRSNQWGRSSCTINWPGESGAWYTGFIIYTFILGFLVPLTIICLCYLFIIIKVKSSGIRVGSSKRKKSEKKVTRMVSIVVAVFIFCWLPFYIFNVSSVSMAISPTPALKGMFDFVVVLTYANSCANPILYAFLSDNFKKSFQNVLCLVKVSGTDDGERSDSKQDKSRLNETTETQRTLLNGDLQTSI

Structure (SMILES)	Ki ([1]; SSTR2 Ki) [nM]	tissue uptake at 2 h [2] [%ID/g]	Ki ([1]; read-out: SSTR2 Ki) [nM]
C[C@@H](O)[C@@H]1NC(=O)[C@H](CCCCN)NC(=O)[C@@H](Cc2c[nH]c3ccccc23)NC(=O)[C@H](Cc2ccc(O)cc2)NC(=O)[C@H](CCSCC(=O)NCCCCCCNC(=O)CN2CCN3CCN4CCN(CC2)CC(=O)[O][Lu]([O]C(=O)C3)[O]C(=O)C4)N(C)C(=O)[C@H](Cc2ccccc2)NC1=O [RB-0003149]	< 1	8.4	
C[C@@H](O)[C@@H]1NC(=O)[C@H](CCCCN)NC(=O)[C@H](Cc2c[nH]c3ccccc23)NC(=O)[C@H](Cc2ccc(O)cc2)NC(=O)[C@H](CCSCC(=O)NCCOCCOCCOCCNC(=O)CN2CCN3CCN4CCN(CC2)CC(=O)[O][Lu]([O]C(=O)C3)[O]C(=O)C4)N(C)C(=O)[C@H](Cc2ccccc2)NC1=O [RB-0005502]		9.4	< 1
C[C@@H](O)[C@@H]1NC(=O)[C@H](CC2CCNCC2)NC(=O)[C@@H]([C@@H](C)c2c[nH]c3ccccc23)NC(=O)[C@H](Cc2ccc(O)cc2)NC(=O)[C@H](CCSCC(=O)NCCCCCCNC(=O)CN2CCN3CCN4CCN(CC2)CC(=O)[O][Lu]([O]C(=O)C3)[O]C(=O)C4)N(C)C(=O)[C@H](Cc2ccccc2)NC1=O [RB-0005760] (cyclo(F[NMehCys](DOTA(Lu)NH(CH2)6NHCOCH2)Y[dTrp(βS-Me)][Ala(piperidin-4-yl)]T))		2.7	< 1
CNCCCC[C@@H]1NC(=O)[C@@H](Cc2c[nH]c3ccccc23)NC(=O)[C@H](Cc2ccc(O)cc2)NC(=O)[C@H](CCSCC(=O)NCCCCCCNC(=O)CN2CCN3CCN4CCN(CC2)CC(=O)[O][Lu]([O]C(=O)C3)[O]C(=O)C4)N(C)C(=O)[C@H](Cc2ccccc2)NC(=O)[C@H]([C@@H](C)O)NC1=O [RB-0005799] (cyclo(F[NMehCys](DOTA(Lu)NH(CH2)6NHCOCH2)Y[dW][Lys(Me)]T))		2.3	< 1
C[C@@H](O)[C@@H]1NC(=O)[C@H](CCCCN(C)C)NC(=O)[C@@H](Cc2c[nH]c3ccccc23)NC(=O)[C@H](Cc2ccc(O)cc2)NC(=O)[C@H](CCSCC(=O)NCCCCCCNC(=O)CN2CCN3CCN4CCN(CC2)CC(=O)[O][Lu]([O]C(=O)C3)[O]C(=O)C4)N(C)C(=O)[C@H](Cc2ccccc2)NC1=O [RB-0005801] (cyclo(F[NMehCys](DOTA(Lu)NH(CH2)6NHCOCH2)Y[dW][Lys(Me2)]T))		2	1 to 3.33
C[C@@H](O)[C@@H]1NC(=O)[C@H](CN2CCNCC2)NC(=O)[C@@H](Cc2c[nH]c3ccccc23)NC(=O)[C@H](Cc2ccc(O)cc2)NC(=O)[C@H](CCSCC(=O)NCCCCCCNC(=O)CN2CCN3CCN4CCN(CC2)CC(=O)[O][Lu]([O]C(=O)C3)[O]C(=O)C4)N(C)C(=O)[C@H](Cc2ccccc2)NC1=O [RB-0005805] (cyclo(F[NMehCys](DOTA(Lu)NH(CH2)6NHCOCH2)Y[dW][Ala(piperazin-1-yl)]T))	< 1	2.5	
C[C@@H](O)[C@@H]1NC(=O)[C@H](CCC2CNC2)NC(=O)[C@@H](Cc2c[nH]c3ccccc23)NC(=O)[C@H](Cc2ccc(O)cc2)NC(=O)[C@H](CCSCC(=O)NCCCCCCNC(=O)CN2CCN3CCN4CCN(CC2)CC(=O)[O][Lu]([O]C(=O)C3)[O]C(=O)C4)N(C)C(=O)[C@H](Cc2ccccc2)NC1=O [RB-0005897] (cyclo(F[NMehCys](DOTA(Lu)NH(CH2)6NHCOCH2)Y[dW][X2]T))		2.5	< 1
C[C@@H](O)[C@@H]1NC(=O)[C@H](CC2CCNCC2)NC(=O)[C@@H]([C@@H](C)c2c[nH]c3ccccc23)NC(=O)[C@H](Cc2ccc(O)cc2)NC(=O)[C@H](CCCCNC(=O)CN2CCN3CCN4CCN(CC2)CC(=O)[O][Lu]([O]C(=O)C3)[O]C(=O)C4)N(C)C(=O)[C@H](Cc2ccccc2)NC1=O [RB-0006176] (cyclo(F[NMeK](DOTA(Lu))Y[dTrp(βS-Me)][Ala(piperidin-4-yl)]T))		1.6	
C[C@@H](O)[C@@H]1NC(=O)[C@H](CC2CCNCC2)NC(=O)[C@@H]([C@@H](C)c2c[nH]c3ccccc23)NC(=O)[C@H](Cc2ccc(O)cc2)NC(=O)[C@H](CCCCNC(=O)C2CN(C(=O)CN3CCN4CCN5CCN(CC3)CC(=O)[O][Lu]([O]C(=O)C5)[O]C(=O)C4)C2)N(C)C(=O)[C@H](Cc2ccccc2)NC1=O [RB-0006455] (cyclo(F[NMeK](X9)Y[dTrp(βS-Me)][Ala(piperidin-4-yl)]T))			1 to 3.33
C[C@@H](O)[C@@H]1NC(=O)[C@H](CC2CCNCC2)NC(=O)[C@@H]([C@@H](C)c2c[nH]c3ccccc23)NC(=O)[C@H](Cc2ccc(O)cc2)NC(=O)[C@H](CCCCNC(=O)CC2CCN(C(=O)CN3CCN4CCN5CCN(CC3)CC(=O)[O][Lu]([O]C(=O)C5)[O]C(=O)C4)CC2)N(C)C(=O)[C@H](Cc2ccccc2)NC1=O [RB-0006458] (cyclo(F[NMeK](X12)Y[dTrp(βS-Me)][Ala(piperidin-4-yl)]T))			3.33 to 10
C[C@@H](O)[C@@H]1NC(=O)[C@H](CC2CCNCC2)NC(=O)[C@@H]([C@@H](C)c2c[nH]c3ccccc23)NC(=O)[C@H](Cc2ccc(O)cc2)NC(=O)[C@H](CCCCNC(=O)CC2CN(C(=O)CN3CCN4CCN5CCN(CC3)CC(=O)[O][Lu]([O]C(=O)C5)[O]C(=O)C4)C2)N(C)C(=O)[C@H](Cc2ccccc2)NC1=O [RB-0006461] (cyclo(F[NMeK](X24)Y[dTrp(βS-Me)][Ala(piperidin-4-yl)]T))			3.33 to 10
C[C@@H](O)[C@@H]1NC(=O)[C@H](CC2CCNCC2)NC(=O)[C@@H]([C@@H](C)c2c[nH]c3ccccc23)NC(=O)[C@H](Cc2ccc(O)cc2)NC(=O)[C@H](CCCCNC(=O)C2CCC(CNC(=O)CN3CCN4CCN5CCN(CC3)CC(=O)[O][Lu]([O]C(=O)C4)[O]C(=O)C5)CC2)N(C)C(=O)[C@H](Cc2ccccc2)NC1=O (some centres unmarked) [RB-0006464] (cyclo(F[NMeK](X14)Y[dTrp(βS-Me)][Ala(piperidin-4-yl)]T))			1 to 3.33
C[C@@H](O)[C@@H]1NC(=O)[C@H](CC2CCNCC2)NC(=O)[C@@H]([C@@H](C)c2c[nH]c3ccccc23)NC(=O)[C@H](Cc2ccc(O)cc2)NC(=O)[C@H](CCCCNC(=O)[C@H]2CC[C@H](CNC(=O)CC[C@@H]3C(=O)[O][Ga]4[O]C(=O)CN5CCN(CCN3CC5)CC(=O)[O]4)CC2)N(C)C(=O)[C@H](Cc2ccccc2)NC1=O [RB-0006470] (cyclo(F[NMeK]([Trx-X7])Y[dTrp(βS-Me)][Ala(piperidin-4-yl)]T))			1 to 3.33
C[C@@H](O)[C@@H]1NC(=O)[C@H](CC2CCNCC2)NC(=O)[C@@H]([C@@H](C)c2c[nH]c3ccccc23)NC(=O)[C@H](Cc2ccc(O)cc2)NC(=O)[C@H](CCCCNC(=O)CCC2C(=O)[O][Ga]3[O]C(=O)CN4CCN(CCN2CC4)CC(=O)[O]3)N(C)C(=O)[C@H](Cc2ccccc2)NC1=O (some centres unmarked) [RB-0006476]			3.33 to 10
C[C@@H](O)[C@@H]1NC(=O)[C@H](CC2CCNCC2)NC(=O)[C@@H]([C@@H](C)c2c[nH]c3ccccc23)NC(=O)[C@H](Cc2ccc(O)cc2)NC(=O)[C@H](CCCCNC(=O)CN2CCN3CCN(CC2)CC(=O)[O][Ga+][O]C(=O)C3)N(C)C(=O)[C@H](Cc2ccccc2)NC1=O [RB-0006488] (cyclo(F[NMeK](X11)Y[dTrp(βS-Me)][Ala(piperidin-4-yl)]T))			1 to 3.33
C[C@@H](O)[C@@H]1NC(=O)[C@H](CC2CCNCC2)NC(=O)[C@@H](Cc2n[nH]c3ccccc23)NC(=O)[C@H](Cc2ccc(O)cc2)NC(=O)[C@H](CCCCNC(=O)CN2CCN3CCN4CCN(CC2)CC(=O)[O][Lu]([O]C(=O)C3)[O]C(=O)C4)N(C)C(=O)[C@H](Cc2ccccc2)NC1=O [RB-0006553] (cyclo(F[NMeK](DOTA(Lu))Y[X8][Ala(piperidin-4-yl)]T))			10 to 33.3
C[C@@H](O)[C@@H]1NC(=O)[C@H](CC2CCNCC2)NC(=O)[C@@H]([C@@H](C)c2c[nH]c3ccccc23)NC(=O)[C@H](Cc2ccc(O)cc2)NC(=O)[C@H](CCCCNC(=O)C23CCC(CNC(=O)CN4CCN5CCN6CCN(CC4)CC(=O)[O][Lu]([O]C(=O)C5)[O]C(=O)C6)(CC2)CC3)N(C)C(=O)[C@H](Cc2ccccc2)NC1=O [RB-0006558] (cyclo(F[NMeK](X10)Y[dTrp(βS-Me)][Ala(piperidin-4-yl)]T))			< 1
C[C@@H](O)[C@@H]1NC(=O)[C@H](CC2CCNCC2)NC(=O)[C@@H]([C@@H](C)c2c[nH]c3ccccc23)NC(=O)[C@H](Cc2ccc(O)cc2)NC(=O)[C@H](CCCCN(C)C(=O)CN2CCN3CCN4CCN(CC2)CC(=O)[O][Lu]([O]C(=O)C4)[O]C(=O)C3)N(C)C(=O)[C@H](Cc2ccccc2)NC1=O [RB-0006579] (cyclo(F[NMeLys(Me)](DOTA(Lu))Y[dTrp(βS-Me)][Ala(piperidin-4-yl)]T))			3.33 to 10
C[C@@H](O)[C@@H]1NC(=O)[C@H](CC2CCNCC2)NC(=O)[C@@H]([C@@H](C)c2c[nH]c3ccccc23)NC(=O)[C@H](Cc2ccc(O)cc2)NC(=O)[C@H](CCCCn2cc(CNC(=O)CN3CCN4CCN5CCN(CC3)CC(=O)[O][Lu]([O]C(=O)C4)[O]C(=O)C5)nn2)N(C)C(=O)[C@H](Cc2ccccc2)NC1=O [RB-0006591]			3.33 to 10
